Assay results taken from patent publication US20210161894A1, “Compositions and Methods for Modulating Liver Endothelial Cell Fenestrations” (priority 2017, published 2021).
“Also recorded” adds a separate entry of the source.

Tests used:
[1] = tested on: isolated LSECs (liver sinusoidal endothelial cells); experiment: SEM of fenestrations in isolated LSECs from young and old mice after 30 min drug treatment (second Example 7); assay type: cell-based; details: for Diameter / Frequency / Porosity: 30 min; for effect on porosity and fenestration frequency (summary in words): young and old LSECs
Experimental: 3-4 and 18-24 month old male C57/B16 mice were obtained from the Animal Resource Centre in Perth, Western Australia. Animals were housed at the ANZAC Research Institute animal house on a 12 hour light/dark cycle and provided with ad libitum access to food and water. Mice were not fasted prior to euthanasia by a single intraperitoneal injection with 100 mg/kg ketamine and 10 mg/kg xylazine in saline. The study was approved by the Animal Welfare Committee of the Sydney Local Health District and was performed in accordance with the Australian Code of Practice for the care and use of animals for scientific research (AWC 2016/009). All information provided accords with the ARRIVE guidelines.
As described previously (Cogger et al. J e52698, 2015 https://dx.doi.org/10.3791/52698), mouse LSEC isolation was performed by perfusion of the liver with collagenase. Non-parenchymal cells were removed by a two-step Percoll gradient and Kupffer cells were removed by selective adherence to plastic. LSECs (seeded at 0.5×10^6 cells/cm2) were cultured (37° C., 5% CO2) in serum free RPMI-1640 for 3.5 hours before use.
Cells were treated with various agents for 30 minutes to determine effects on fenestrations. All agents were dissolved in serum-free RPMI media. All experiments were performed in triplicate for both young and old mice. Actin was disrupted with 0.5 μg/ml cytochalasin D and lipid rafts were disrupted with 3.6 and 1.8 μg/ml 7-keocholesterol; dosages were selected. […] The serotonergic/phospholipase C pathway was promoted with DOI (0.1 μg/ml) and endothelin receptors were inhibited by bosentan (550, 55 and 5.5 ng/ml) Death receptor 4 was promoted with TRAIL (100, 10. 1, 0.1 and 0.01 ng/ml) and NAD+ was promoted with NMN (5000, 50, 10, 1 and 0.1 μg/ml).
SEM was performed as previous described (Corbin et al J Biol Chem 274: 13729-13732, 1999.). LSECs were fixed in 2.5% glutaraldehyde in 0.1M sodium cacodylate buffer, osmicated, dehydrated in graded ethanol and hexamethyl disilazane, mounted on stubs, sputter coated with platinum and examined using a JEOL 6380 Scanning Electron Microscope (JEOL Ltd, Japan). Images at 10,000× magnification were collected by a blinded observer and used to measure fenestration diameter and LSEC porosity using Image J (NIH, MD, USA). […] Fenestrations less than 30 nm and gaps more than 300 nm were excluded from analysis. Porosity was defined as the percentage of the cell membrane covered with fenestrations. Frequency was defined at the number of fenestrations per […].
Individual specifications of analyses are described in figures legends. All data are presented as mean±SD. Experimental design and analysis were performed in accordance with the APS guidelines described in Curran-Everett and Benos DJ. Adv Physiol Educ 31: 295-298, 2007.

LSEC fenestrations = experiment: SEM of LSEC fenestrations after drug treatments (Example 2, FIGS. 1-6); assay type: cell-based, mice; details: for sieve plates and fenestration density on SEM images: young and old mice; for change in fenestration diameter: Bosentan 0.1 μM, Sildenafil 300 ng/ml, TRAIL 1 μg/ml
From the text: Young and old C57B16 mice (n=3 young mice, age 3-4 and n=3 old mice, 20-24 months) were maintained under full SPF conditions and with ad libitum feeding. The study had the approval of the Sydney South West Area Health Service Animal Welfare Committee. Mice at 20-24 months are senescent. Animals were sacrificed withCO2 and livers immediately perfusion-fixed via a 23G needle inserted into the portal vein. Liver tissue was fixed with1% glutaraldehyde/4% para-formaldehyde in PBS (0.1M sucrose).
Drug treatments and dosages (shown superimposed on their corresponding image in FIGS. 1, and 2) were performed by incubating liver cells at 37° C., 5% CO2 for 30 mins using RPMI with or without dissolved drug. All images were taken by two blinded researchers using a SEM at 10,000×, scale bars of 1 μm are shown.
Each data point represents the average±SD of 8 images (as shown in FIGS. 1 and 2), 616-3312 fenestration raw data points were collected per treatment.

[2] = tested on: actin cytoskeleton of LSECs; experiment: dSTORM imaging of the actin cytoskeleton; assay type: cell-based; details: young mice
Experimental: dSTORM imaging was performed using an in-house microscope. LSECs were prepared for dSTORM by washing twice with PBS and fixation with 4% paraformaldehyde for 30 mins. Then LSECs were washed twice with PBS, permeabilised with Triton-X for 90 secs, blocked with 5% bovine serum albumin for 1 hour, and stained with Alexa Flour phalloidin 488 (1:40) for 20 min prior to imaging. Cells were washed using PBS with 0.1% Tween and placed in OxEA buffer (30) for dSTORM visualisation and image capture. The dSTORM used 488 and 647 nm excitation from diode-pumped lasers (Coherent Inc, CA, USA). Excitation was delivered via a 1.49NA 60× oil-immersion TIRF objective (Olympus Australia, AUS). Fluorescence was captured on two separate sCMOS cameras (Imaging Development Systems GmbH, Germany). Data was collected for up to 40,000 images at around 75 fps. 5-8 whole cell images were collected by a blinded observer for each treatment dosage and processed using rapidSTORM open source software (Wolter et al. Nat Methods 9: 1040, 2012.). Each image was examined for all sieve plates and actin structures. Densitometry measurements were performed using 5-8 dSTORM images with data analysis performed using Image J software (NIH, MD, USA).

Intracellular cGMP = experiment: Cyclic GMP ELISA; assay type: cell-based, mice
Experimental: Assays for MTT and cGMP were performed as instructed by the kit. Briefly, MTT assays were performed following drug treatments. Cells were washed with PBS and incubated with RPMI media containing […] MTT solution. Cells were incubated at 37° C. for 4 hrs and lysed with […] solubilisation solution, 30 mins colour development followed and measured at 570 nm using a spectrophotometer. cGMP assays were also performed after drug treatments. Cells were washed with PBS and lysed with 0.1M HCl. Following sample collection the sample was acetylated and prepared with kit reagents. Samples were incubated for 18 hrs at 4° C. before examination at 410 nm with a spectrophotometer.

NAD+ = details: cited from earlier work
[3] = old rats, 500 mg/kg; cited from earlier work
[4] = tested on: human umbilical vein endothelial cells; details: 15 mins of 1 μg/ml treatment; cited from earlier work

## NC(=O)c1ccc[n+]([C@@H]2O[C@H](COP(=O)([O-])O)[C@@H](O)[C@H]2O)c1 [NMN, nicotinamide mononucleotide]
[1]
  gap formation: Gap formation was apparent
  effect on porosity and fenestration frequency (summary in words): significant increases in porosity and fenestration frequency in both young and old LSECs
[1]; LSECs from young mice, increase from 4.6%
  fenestration porosity after treatment: 8.1%
[1]; old mice
  average fenestration diameter: 132±2 nm
[1]; old mice, 50 pg/ml
  increase in frequency: 2.25 fold
  increase in porosity: 2.5 fold
[1]; old mice, 50 μg/ml
  Diameter: 132.12 ± 2.28 nm
  Frequency: 3.95 ± 1.35 no/area
  Porosity: 5.92 ± 1.94 %
[1]; old mice, 5000 μg/ml
  Diameter: 139.05 ± 11.97 nm
  Frequency: 3.39 ± 0.60 no/area
  Porosity: 5.55 ± 1.75 %
[1]; young mice
  dose response on fenestration porosity (words): broad range
[1]; young mice, 50 μg/ml
  Diameter: 127.68 ± 8.19 nm
  Frequency: 4.53 ± 0.58 no/area
  Porosity: 6.08 ± 1.00%
[1]; young mice, 5000 μg/ml
  Diameter: 130.48 ± 13.21 nm
  Frequency: 5.53 ± 0.58 no/area
  Porosity: 8.05 ± 2.23 %
[1]; young mice, NMN 5000 μg/ml, 7-ketocholesterol 3.6 μg/ml
  shift in frequency distribution of fenestration diameter: an increase in 30-100 nm and 226-500 nm fenestrations with a reduction in 126-200 nm fenestrations
LSEC fenestrations
  diameter of fenestrations observed on SEM images: Increased diameter of fenestrations
  sieve plates and fenestration density on SEM images: promoted increased fenestration density and maintained sieve plate fenestration clustering
LSEC fenestrations; old mice
  sieve plate grouping on SEM images: greater fenestration sieve plate grouping
LSEC fenestrations; old mice, 50 μg/ml
  fenestration diameter: 133.4±0.9 nm
  fenestration frequency: 4.4±1.6 number/μm^2
  fenestration porosity: 6.6±2.2%
LSEC fenestrations; old mice, bin range of 101-125 nm
  peak frequency in histogram of fenestration diameter: 24%
LSEC fenestrations; young mice, 5 mg/ml
  fenestration frequency: 5.9±0.1 number/μm^2
  fenestration porosity: 9.1±2.0%
[2]
  actin changes with drug treatments (dSTORM): loss of smooth fibres encircling the cytoplasm; also recorded: disordered, dense actin staining in the plasma membrane and clustering of actin within the cytoplasm; also recorded: Individual fenestrations; also recorded: Disordered actin structure; also recorded: Actin clusters; also recorded: Gap formations
Intracellular cGMP
  change of intracellular cGMP: no changes
NAD+; diet and age induced type 2 diabetic mice models, similar dosages continuously for 7 days
  insulin action and secretion: improve insulin action and secretion
NAD+; female mice, 15 mins after single intraperitoneal injection of 500 mg/kg
  NAD+: Elevated NAD+
[3]
  glucose tolerance: improved glucose tolerance
  toxicity: non-toxic

B1: Tumor necrosis factor-related apoptosis inducing ligand (protein, UniProt P50591 1-281, looked up)
Tumor necrosis factor ligand …: MAMMEVQGGPSLGQTCVLIVIFTVLLQSLCVAVTYVYFTNELKQMQDKYSKSGIACFLKEDDSYWDPNDEESMNSPCWQVKWQLRQLVRKMILRTSEETISTVQEKQQNISPLVRERGPQRVAAHITGTRGRSNTLSSPNSKNEKALGRKINSWESSRSGHSFLSNLHLRNGELVIHEKGFYYIYSQTYFRFQEEIKENTKNDKQMVQYIYKYTSYPDPILLMKSARNSCWSKDAEYGLYSIYQGGIFELKENDRIFVSVTNEHLIDMDHEASFFGAFLVG
notes: death receptor 4/5 promoter
[1]; old mice, 1 ng/ml
  Diameter: 127.50 ± 15.53 nm
  Frequency: 1.97 ± 0.49 no/area
  Porosity: 2.79 ± 0.14%
[1]; old mice, 10 ng/ml
  Diameter: 120.08 ± 3.74 nm
  Frequency: 2.13 ± 0.48 no/area
  Porosity: 2.85 ± 0.53%
[1]; old mice, 100 ng/ml
  Diameter: 130.88 ± 17.00 nm
  Frequency: 2.03 ± 0.53 no/area
  Porosity: 2.97 ± 0.46%
[1]
  effect on porosity and fenestration frequency (summary in words): LSECs from young mice only demonstrated significant increases in porosity and frequency
[1]; young mice
  dose response on fenestration porosity (words): did not promote greater changes in fenestration porosity or frequency; also recorded: had the greatest activity and similar maximal efficacy to NMN but was more potent; also recorded: limited dosage range for positive effects on fenestration porosity
  increase in fenestration frequency: 40%
  increase in porosity: 60%
[1]; young mice, 1 ng/ml
  Diameter: 137.95 ± 8.12 nm
  Frequency: 4.47 ± 0.43 no/area
  Porosity: 7.17 ± 1.49 %
[1]; young mice, 10 ng/ml
  Change in Porosity, Young: ↑ (ns)
  Diameter: 140.36 ± 3.22 nm
  Frequency: 3.73 ± 0.46 no/area
  Porosity: 6.24 ± 0.52 %
[1]; young mice, 100 ng/ml
  Diameter: 145.87 ± 6.77 nm
  Frequency: 3.15 ± 0.27 no/area
  Porosity: 5.49 ± 0.63%
[1]; young mice, sildenafil 0.3 μg/ml, amlodipine 20 ng/ml, TRAIL 1 ng/ml
  fenestration numbers, fenestrated cell area and sieve plate formation: increased fenestration numbers and overall fenestrated cell area with some disruption to sieve plate formation
LSEC fenestrations; old mice
  sieve plate grouping on SEM images: greater fenestration sieve plate grouping
LSEC fenestrations; old mice, 1 μg/ml
  fenestration porosity: 2.7±0.1%
LSEC fenestrations; old mice, 7KC 4.5 μM
  change in fenestration diameter: No changes in diameter
LSEC fenestrations
  sieve plates and fenestration density on SEM images: promoted increased fenestration density and maintained sieve plate fenestration clustering
LSEC fenestrations; young mice, 1 μg/ml
  fenestration frequency: 4.5±0.4 number/μm^2
  fenestration porosity: 7.2±1.5%
LSEC fenestrations; young mice
  change in fenestration diameter: No changes in diameter
[2]
  actin changes with drug treatments (dSTORM): absence of the intense actin clustering; also recorded: Disordered actin structure; also recorded: Gap formations; also recorded: Minimal actin clustering
Intracellular cGMP; p=0.001
  increase of intracellular cGMP: 3 fold
[4]
  NOS and phosphorylated NOS: upregulate NOS and phosphorylated NOS
